In brackets after ≈: the same amount, converted by molar mass.
Experiments:
[1] = In vitro solubility in buffer at different pH (HPLC); conditions: for solubility at 5 min: kinetic from dmso stock
Mtb. H37Rv = assay: Antibacterial susceptibility testing, broth microdilution MIC; format: cell-based, Mycobacterium tuberculosis; conditions: M. tuberculosis H37Rv ATCC 27294, 7 days, 37° C., no visible growth; for MIC: Mycobacterium tuberculosis, ATCC 27294 / H37Rv, 168 h, read-out: MIC against mycobacterium tuberculosis Mtb. H37Rv
physchem = conditions: kinetic from dmso stock
[2] = tested on: drug-sensitive Mycobacterium tuberculosis strains; conditions: drug-sensitive M. tuberculosis; cited from earlier work
[3] = tested on: TB aerosol lung infection model; conditions: in vivo; cited from earlier work
[4] = pH 1.2, simulated gastric fluid

SMILES: CC1(C)CCC(NC(=O)c2cc3c(Cl)cc(Cl)cc3[nH]2)CC1 [NITD 304, reference compound]
- Solubility in DMSO (standard solution) ([1]; DMSO @ 10 μM Concentration): Insoluble in DMSO @ 10 μM Concentration.
- MIC against mycobacterium tuberculosis Mtb. H37Rv (Mtb. H37Rv): 0.06 µg/mL (≈ 0.177 µM)

SMILES: C[Si]1(C)CCN(C(=O)c2cc3ccccc3[nH]2)CC1 [Compound (d), (4,4-dimethyl-1,4-azasilinan-1-yl)(1H-indol-2-yl)methanone]
- MIC (Mtb. H37Rv): 32 µg/mL (≈ 117 µM)

SMILES: CC1(C)CCC(NC(=O)c2cc3c(F)cc(F)cc3[nH]2)CC1 [NITD 349, reference compound]
- Solubility pH 1.2 ([1]; buffer pH 1.2): 0.24 μM
- Solubility pH 2.2 ([1]; buffer pH 2.2): 0.29 μM
- Solubility pH 4.5 ([1]; buffer pH 4.5): 0.15 μM
- Solubility pH 7.4 ([1]; buffer pH 7.4): 0.24 μM
- Solubility pH 10.2 ([1]; buffer pH 10.2): 7.30 μM
- MIC against mycobacterium tuberculosis Mtb. H37Rv (Mtb. H37Rv): 0.03 µg/mL (≈ 0.0979 µM)

SMILES: CC1(C)CCN(NC(=O)c2cc3c(F)cc(F)cc3[nH]2)CC1 [Compound (l), N-(4,4-dimethylpiperidin-1-yl)-4,6-difluoro-1H-indole-2-carboxamide]
- solubility at 5 min (physchem; [4]): 49.6 µM (≈ 15.3 µg/mL)
- solubility at 5 min (physchem; pH 2.2, aqueous buffer): 46.4 µM (≈ 14.3 µg/mL)
- solubility at 5 min (physchem; pH 4.5, aqueous buffer): 17.3 µM (≈ 5.31 µg/mL)
- solubility at 5 min (physchem; pH 7.4, aqueous buffer): 29.4 µM (≈ 9.04 µg/mL)
- solubility at 5 min (physchem; pH 10.2, aqueous buffer): 21.4 µM (≈ 6.57 µg/mL)

SMILES: C[C@@H]1[C@H]2C[C@@H](C[C@H]1NC(=O)c1cc3c(F)cc(F)cc3[nH]1)C2(C)C [4,6-difluoro-N-((1R,2R,3R,5S)-2,6,6-trimethylbicyclo[3.1.1]heptan-3-yl)-1H-indole-2-carboxamide]
- MIC [2]: 0.012 µM (≈ 0.00399 µg/mL)
- SI [2]: ≥ 16000
- activity in the TB aerosol lung infection model (in words) [3]: excellent activity

SMILES: CC1(C)CCN(NC(=O)c2cc3c(Cl)cc(Cl)cc3[nH]2)CC1.Cl [Compound (n), 4,6-dichloro-N-(4,4-dimethylpiperidin-1-yl)-1H-indole-2-carboxamide hydrochloride]
- solubility at 5 min (physchem; [4]): 42.6 µM
- solubility at 5 min (physchem; pH 2.2, aqueous buffer): 26.2 µM
- solubility at 5 min (physchem; pH 4.5, aqueous buffer): 7.24 µM
- solubility at 5 min (physchem; pH 7.4, aqueous buffer): 10.6 µM
- solubility at 5 min (physchem; pH 10.2, aqueous buffer): 9.89 µM

SMILES: C[Si]1(C)CCN(C(=O)c2cc3c(Cl)cc(Cl)cc3[nH]2)CC1 [Compound (g), (4,6-dichloro-1H-indol-2-yl)(4,4-dimethyl-1,4-azasilinan-1-yl)methanone]
- MIC (Mtb. H37Rv): 16 µg/mL (≈ 46.9 µM)

SMILES: CC1(C)CCN(NC(=O)c2cc3c(Cl)cc(Cl)cc3[nH]2)CC1 [Compound (h), 4,6-dichloro-N-(4,4-dimethylpiperidin-1-yl)-1H-indole-2-carboxamide]
- solubility at 5 min (physchem; [4]): 41.1 µM (≈ 14 µg/mL)
- solubility at 5 min (physchem; pH 2.2, aqueous buffer): 30 µM (≈ 10.2 µg/mL)
- solubility at 5 min (physchem; pH 4.5, aqueous buffer): 8.6 µM (≈ 2.93 µg/mL)
- solubility at 5 min (physchem; pH 7.4, aqueous buffer): 6.32 µM (≈ 2.15 µg/mL)
- solubility at 5 min (physchem; pH 10.2, aqueous buffer): 8.67 µM (≈ 2.95 µg/mL)

SMILES: C[Si]1(C)CCN(C(=O)c2cc3c(F)cc(F)cc3[nH]2)CC1 [Compound (k), (4,6-difluoro-1H-indol-2-yl)(4,4-dimethyl-1,4-azasilinan-1-yl)methanone]
- MIC (Mtb. H37Rv): 32 µg/mL (≈ 104 µM)

SMILES: C[Si]1(C)CCN(NC(=O)c2cc3c(Cl)cc(Cl)cc3[nH]2)CC1 [Compound (f), 4,6-dichloro-N-(4,4-dimethyl-1,4-azasilinan-1-yl)-1H-indole-2-carboxamide]
- aqueous solubility at the acidic pH (in words) [1]: good aqueous solubility
- solubility at 5 min [1, 4]: 40.4 µM (≈ 14.4 µg/mL)
- solubility at 5 min ([1]; pH 2.2, aqueous buffer): 26.3 µM (≈ 9.37 µg/mL)
- solubility at 5 min ([1]; pH 4.5, aqueous buffer): 2.57 µM (≈ 0.916 µg/mL)
- solubility at 5 min ([1]; pH 7.4, aqueous buffer): 2.57 µM (≈ 0.916 µg/mL)
- solubility at 5 min ([1]; pH 10.2, aqueous buffer): 2.7 µM (≈ 0.962 µg/mL)
- MIC (Mtb. H37Rv): 0.03 µg/mL (≈ 0.0842 µM)

SMILES: C[Si]1(C)CCC(NC(=O)c2cc3c(Cl)cc(Cl)cc3[nH]2)CC1 [Compound (e), 4,6-dichloro-N-(1,1-dimethylsilinan-4-yl)-1H-indole-2-carboxamide]
- MIC (Mtb. H37Rv): 0.03 µg/mL (≈ 0.0844 µM)

SMILES: C[Si]1(C)CCC(NC(=O)c2cc3ccccc3[nH]2)CC1 [Compound (b), N-(1,1-dimethylsilinan-4-yl)-1H-indole-2-carboxamide]
- MIC (Mtb. H37Rv): 0.03 µg/mL (≈ 0.105 µM)

SMILES: CC1(C)CCC(NC(=O)c2cc3ccccc3[nH]2)CC1 [Compound (a), N-(4,4-dimethylcyclohexyl)-1H-indole-2-carboxamide]
- MIC (Mtb. H37Rv): 0.06 µg/mL (≈ 0.222 µM)

SMILES: C[Si]1(C)CCN(NC(=O)c2cc3ccccc3[nH]2)CC1 [Compound (c), N-(4,4-dimethyl-1,4-azasilinan-1-yl)-1H-indole-2-carboxamide]
- MIC (Mtb. H37Rv): 2 µg/mL (≈ 6.96 µM)

SMILES: C[Si]1(C)CCC(NC(=O)c2cc3c(F)cc(F)cc3[nH]2)CC1 [Compound (i), N-(1,1-dimethylsilinan-4-yl)-4,6-difluoro-1H-indole-2-carboxamide]
- solubility at 5 min ([1]; pH 10.2, aqueous buffer): 9.03 µM (≈ 2.91 µg/mL)
- MIC (Mtb. H37Rv): 0.03 µg/mL (≈ 0.093 µM)

SMILES: C[Si]1(C)CCN(NC(=O)c2cc3c(Cl)cc(Cl)cc3[nH]2)CC1.Cl [Compound (m), 4,6-dichloro-N-(4,4-dimethyl-1,4-azasilinan-1-yl)-1H-indole-2-carboxamide hydrochloride]
- aqueous solubility at the acidic pH (in words) [1]: good aqueous solubility
- solubility at 5 min [1, 4]: 38.6 µM
- solubility at 5 min ([1]; pH 2.2, aqueous buffer): 28.4 µM
- solubility at 5 min ([1]; pH 4.5, aqueous buffer): 2.55 µM
- solubility at 5 min ([1]; pH 7.4, aqueous buffer): 2.73 µM
- solubility at 5 min ([1]; pH 10.2, aqueous buffer): 2.46 µM

SMILES: C[Si]1(C)CCN(NC(=O)c2cc3c(F)cc(F)cc3[nH]2)CC1 [Compound (j), N-(4,4-dimethyl-1,4-azasilinan-1-yl)-4,6-difluoro-1H-indole-2-carboxamide]
- aqueous solubility at the acidic pH (in words) [1]: good aqueous solubility
- solubility at 5 min [1, 4]: 49.7 µM (≈ 16.1 µg/mL)
- solubility at 5 min ([1]; pH 2.2, aqueous buffer): 31.3 µM (≈ 10.1 µg/mL)
- solubility at 5 min ([1]; pH 4.5, aqueous buffer): 1.01 µM (≈ 0.327 µg/mL)
- solubility at 5 min ([1]; pH 7.4, aqueous buffer): 1 µM (≈ 0.323 µg/mL)
- solubility at 5 min ([1]; pH 10.2, aqueous buffer): 1.1 µM (≈ 0.356 µg/mL)
- MIC (Mtb. H37Rv): 0.125 µg/mL (≈ 0.386 µM)

Reference: US11718633B2, “Indole compounds, process for the preparation and use thereof” (priority 2018, dated 2023)
